Laboratory results: the RepoRT retention time repository (doi:10.1007/s11306-014-0727-x)
Structures can show the parent of a compound that is named as a salt.

Assay: HILIC, Merck SeQuant ZIC-pHILIC, 100 × 2.1 mm, 5 µm, 25 °C; gradient (min/%B) 0/3 1/3 12/30 14.5/90 17/90 18.5/3 24/3
Conditions: stereoisomer not certain

| SMILES | LC retention time [min] |
| --- | --- |
| NC(N)=NCCC[C@H](N)C(=O)O [L-Arginine] | 16 |
| CC(N)=O [Acetamide] | 2.38 |
| O=c1[nH]cnc2c1ncn2C1OC(CO)C(O)C1O (centres undefined) [Inosine] | 9.18 |
| NCCCC(=O)O [Gamma-amino-n-butyric acid] | 11.6 |
| Nc1nc2nc[nH]c2c(=O)[nH]1 [Guanine] | 9.81 |
| c1ccc(CNCc2ccccc2)cc1 [Dibenzylamine] | 7.37 |
| CC(C)[C@@H](N)C(=O)O [D-valine] | 10.5 |
| O=C(O)CC1OCC=C2CN3CCC45C6=CC(=O)C(=O)C([N+](=O)[O-])=C6NC4C1C2CC35 (centres undefined) [Cacotheline] | 11.6 |
| COc1cc(-c2ccc(N)c(OC)c2)ccc1N [Dianisidine o-] | 1.46 |
| N[C@H](Cc1c[nH]c2ccccc12)C(=O)O [D-Tryptophan] | 10.1 |
| NC(CCS)C(=O)O (racemic) [DL-Homocysteine] | 11.1 |
| CC(=O)OCC1OC(OC(C)=O)C(OC(C)=O)C(OC(C)=O)C1OC(C)=O (stereo not drawn) [Beta-Penta acetyl glucose] | 1.06 |
| O=C(O)c1cc(=O)c2cccc(O)c2[nH]1 [4 8-Dihydroxyquinoline-2-carboxylic acid] | 9.54 |
| CC(C)C[C@@H](N)C(=O)O [D-Leucine] | 9.5 |
| NC(CCCC(N)C(=O)O)C(=O)O (racemic) [DL-2-6-Diaminopimelic acid] | 14.8 |
| NCc1ccccc1 [Benzylamine] | 10.2 |
| Nc1nc2c(ncn2C2CC(O)C(CO)O2)c(=O)[nH]1 (centres undefined) [Deoxyguanosine] | 9.48 |
| NC(CS)C(=O)O (centres undefined) [Cysteine] | 11.8 |
| Nc1ncnc2c1ncn2C1CC(O)C(CO)O1 (centres undefined) [2'-Deoxyadenosine] | 7.15 |
| CC(N)(CO)CO [Amino-2-methylpropane-1 3-diol 2-] | 12.7 |

| SMILES | LC retention time [min] |
| --- | --- |
| NCCC(N)C(=O)O (racemic) [DL-2-4-Diaminobutyric acid dihydrochloride] | 15.9 |
| COc1ccc2[nH]cc(CCN)c2c1 [5-methoxytryptamine] | 9.56 |
| Nc1ccn(C2CC(O)C(CO)O2)c(=O)n1 (centres undefined) [Deoxycytidine] | 10 |
| N[C@@H](CCCC(=O)O)C(=O)O [L-2-Aminoadipic acid] | 12.4 |
| O=P([O-])([O-])OCC(O)CO [L-Alpha-Glycerophosphate] | 13.5 |
| NC(N)=NCC(=O)O [Glycocyamine] | 12.8 |
| NCC(=O)NCC(=O)O [Glycylglycine] | 14.4 |
| O=C(O)C1CCNCC1 [Isonipecotic acid] | 11 |
| CC(N)C(=O)O (centres undefined) [Alanine] | 12.1 |
| Nc1ccccc1C(=O)CC(N)C(=O)O [D-kynurenine] | 9.76 |
| CN(C)Cc1ccccc1 [Dimethylbenzylamine N N-] | 7.54 |
| O=C(CO)C(OC1OC(CO)C(O)C(O)C1O)C(O)C(O)CO (stereo not drawn) [D(+)turanose] | 12.6 |
| NC(=O)Cc1c[nH]c2ccccc12 [Indole-3-acetamide] | 2.48 |
| c1c[nH]cn1 [Imidazole] | 10.4 |
| CN(C)c1ccc(C=CC=O)cc1 [4-(dimethyl amino) cinnamaldehyde] | 1.17 |
| O=C(O)CNCC(=O)O [Iminodiacetic acid] | 13.7 |
| NC(=O)C[C@H](N)C(=O)O [L-Asparagine] | 13.2 |
| NCCc1ccc(O)cc1 [Tyramine] | 10.5 |
| Nc1ncnc2c1ncn2C1OC(CO)C(O)C1O (centres undefined) [Adenosine] | 7.78 |
| Oc1cc(O)c2c(c1)OC(c1ccc(O)c(O)c1)C(O)C2 (centres undefined) [Catechin] | 8.63 |

| SMILES | LC retention time [min] |
| --- | --- |
| NC(CC(=O)O)C(=O)O (racemic) [DL-Aspartic acid] | 13.6 |
| COc1ccc2[nH]cc(CC(N)C(=O)O)c2c1 (racemic) [5-Methoxy-DL-tryptophan] | 9.74 |
| OCCNCCO [Diethanolamine] | 11.3 |
| Nc1nc2c(ncn2C2OC(CO)C(O)C2O)c(=O)[nH]1 (centres undefined) [Guanosine] | 10.6 |
| CC(C)=CCNc1ncnc2nc[nH]c12 [6-(Y-Y-Dimethylallylamino)purine] | 2.88 |
| NCCc1c[nH]c2ccccc12 [Tryptamine] | 9.86 |
| c1cnc2[nH]ccc2c1 [7-Azaindole] | 1.74 |
| Nc1ncnc2nc[nH]c12 [Adenine] | 8.22 |
| O=c1[nH]cnc2nc[nH]c12 [Hypoxanthine] | 7.88 |
| CN1CC(=O)NC1=N [Creatinine] | 9.87 |
| Nc1nc2ncc(CNc3ccc(C(=O)NC(CCC(=O)O)C(=O)O)cc3)nc2c(=O)[nH]1 (centres undefined) [Folic Acid] | 11.4 |
| COc1ccc(Cc2cnc(N)nc2N)cc1OC [Diaveridine] | 8.91 |
| NC(Cc1ccc(O)c(O)c1)C(=O)O [Dihydroxyphenyl-analine L-3 4] | 12.7 |
| NCCO [Ethanolamine] | 12.9 |
| Nc1ccn(C2OC(CO)C(O)C2O)c(=O)n1 (centres undefined) [Cytidine] | 10.5 |
| NC(=O)CCC(N)C(=O)O [Glutamine L-] | 12.9 |
| Nc1ccnc(=O)[nH]1 [Cytosine] | 10.4 |
| COc1cc2c(c(OC)c1OC)-c1ccc(OC)c(=O)cc1C(NC(C)=O)CC2 (centres undefined) [Colchicine] | 1.36 |
| C(=NC1CCCCC1)=NC1CCCCC1 [Dicyclohexylcarbodiimide-n n'] | 1.09 |

Now from value to compound:

| LC retention time [min] | SMILES |
| --- | --- |
| 13.5 | OCC1OC(OC2C(CO)OC(O)C(O)C2O)C(O)C(O)C1O (single isomer, unassigned; peak a) [Lactose Peak A] |
| 1.22 | O=c1c2ccccc2oc2ccccc12 [Xanthone] |
| 6.55 | O=c1c(O)c(-c2ccc(O)cc2O)oc2cc(O)cc(O)c12 [Morin] |
| 4.41 | Cc1cn(C2CC(O)C(CO)O2)c(=O)[nH]c1=O (centres undefined) [Thymidine] |
| 15.7 | N[C@@H](Cc1cnc[nH]1)C(=O)O [L-Histidine monohydrochloride] |
| 10.4 | O=C(O)[C@@H]1CCCN1 [L-Proline] |
| 2.26 | Nc1ccc(C(=O)O)cc1 [P-Aminobenzoic acid] |
| 9.21 | Cc1ncc(CO)c(CO)c1O [Pyridoxine] |
| 8.29 | O=c1[nH]c(=O)c2[nH]cnc2[nH]1 [Xanthine] |
| 7.51 | CC1OC(OC2C(Oc3cc(O)c4c(c3)OC(c3ccc(O)cc3)CC4=O)OC(CO)C(O)C2O)C(O)C(O)C1O (centres undefined) [Naringin CHR] |
| 11.6 | CCC(N)C(=O)O [L-a-Amino-n-butyric acid] |
| 3.51 | Cc1c[nH]c(=O)[nH]c1=O [Thymine] |
| 2.28 | Cn1c(=O)c2[nH]cnc2n(C)c1=O [Theophylline] |
| 15.9 | NCCCC[C@H](N)C(=O)O [L-Lysine] |
| 10 | CC(C)(C)[C@H](N)C(=O)O [L-tert-Leucine] |
| 10.4 | COC(C)C(N)C(=O)O (centres undefined) [O-methyl threonine] |
| 7.85 | Cc1cc2nc3c(=O)[nH]c(=O)nc-3n(CC(O)C(O)C(O)CO)c2cc1C (centres undefined) [Riboflavin] |
| 13.2 | NC(CO)C(=O)O [Serine L-] |
| 1.9 | O=C(O)c1ccc2ccccc2n1 [Quinaldic acid] |
| 5.67 | Nc1ccc(C(=O)NCC(=O)O)cc1 [p-aminohippuric acid] |

| LC retention time [min] | SMILES |
| --- | --- |
| 10.6 | CCNC(=O)CC[C@H](N)C(=O)O [L-Theanine] |
| 10.3 | Cc1ncc(COP(=O)(O)O)c(C=O)c1O [Pyridoxal-5'-phosphate] |
| 12.1 | O=C(O)[C@@H]1C[C@@H](O)CN1 [Trans-4-hydroxy-L-proline] |
| 7.09 | O=C(CCc1ccc(O)cc1)c1c(O)cc(O)cc1OC1OC(CO)C(O)C(O)C1O (centres undefined) [Phloridzin] |
| 14.1 | NC(=O)c1ccc[n+](C2OC(COP(=O)(O)OP(=O)([O-])OCC3OC(n4cnc5c(N)ncnc54)C(O)C3O)C(O)C2O)c1 (centres undefined) [Nicotinamide adenine dinucleotide] |
| 7.45 | CC(O)C(=O)O (centres undefined) [Lactic acid] |
| 11.9 | Cl.N[C@@H](CS)C(=O)O.O [L-cysteine hydrochloride hydrate] |
| 9.3 | CC1OC(OCC2OC(Oc3c(-c4ccc(O)c(O)c4)oc4cc(O)cc(O)c4c3=O)C(O)C(O)C2O)C(O)C(O)C1O (centres undefined) [Rutin Trihydrate] |
| 11.2 | N[C@@H](Cc1ccc(O)cc1)C(=O)O [L-tyrosine] |
| 7.16 | NC(N)=O [Urea] |
| 10.4 | C1COCCN1 [Morpholine] |
| 9.62 | CCCC[C@H](N)C(=O)O [L-Norleucine] |
| 15.9 | NCCC[C@H](N)C(=O)O [L-Ornithine] |
| 14.5 | C[C@@H](OP(=O)(O)O)[C@H](N)C(=O)O [O-phospho-L-threonine] |
| 12.6 | NCCS(=O)(=O)O [Taurine] |
| 2.35 | O=C(O)c1cccnc1 [Nicotinic acid] |
| 11.9 | Cc1cn(C2CC(O)C(COP(=O)(O)O)O2)c(=O)[nH]c1=O (centres undefined) [Thymidine monophosphate] |
| 12.6 | N[C@@H](CCO)C(=O)O [L-Homoserine] |
| 14.3 | O=C(O)C(O)C(O)C(OC1OC(CO)C(O)C(O)C1O)C(O)CO (centres undefined) [Lactobionic acid] |
| 12.5 | C[C@@H](O)[C@H](N)C(=O)O [L-threonine] |
